Reference: publication PMC4407702 (International journal of pharmaceutics, 2011)
Values after ≈ are worked out from the molar mass of the structure shown. Values joined by “and” are separate entries in the source; they are usually repeats but may differ in a detail not shown here. Identical values can stand only once. Like-named read-outs stand apart in the source and are kept apart here.

Experiments:
Aqueous solubility study = type: physicochemical; conditions: distilled deionized water, 25 °C, thermodynamic from solid
Caco-2 cell monolayers [1] = conditions: ref Ucpinar and Stavchansky, 2003; cited from earlier work
[2] = system: MDCK-MDR1 cell monolayers; conditions: ref Jain et al., 2005; cited from earlier work
SVCT [3] = biological target: SVCT (Homo sapiens, UniProt Q9UHI7); experiment: Inhibition of [14C]AA uptake in Caco-2 cells; type: cell-based; conditions: 200 μM unlabeled compound, [14C]AA 23.5 μM
Caco-2 cell monolayers [4] = experiment: Transepithelial transport across Caco-2 cell monolayers; type: in vitro ADME
[5] = as above; type: in vitro ADME; conditions: human, Caco-2
SVCT [6] = biological target: SVCT (Canis lupus familiaris, UniProt A8CX01); experiment: Inhibition of [14C]AA uptake in MDCK-MDR1 cells; type: cell-based, canine; conditions: 200 μM unlabeled compound, [14C]AA 23.5 μM
[7] = Caco-2, [14C]AA 23.5 μM or AA-Su-Saq 25 μM donor, 3 h

Chain of SVCT (Homo sapiens, UniProt Q9UHI7) (Q9UHI7 whole entry): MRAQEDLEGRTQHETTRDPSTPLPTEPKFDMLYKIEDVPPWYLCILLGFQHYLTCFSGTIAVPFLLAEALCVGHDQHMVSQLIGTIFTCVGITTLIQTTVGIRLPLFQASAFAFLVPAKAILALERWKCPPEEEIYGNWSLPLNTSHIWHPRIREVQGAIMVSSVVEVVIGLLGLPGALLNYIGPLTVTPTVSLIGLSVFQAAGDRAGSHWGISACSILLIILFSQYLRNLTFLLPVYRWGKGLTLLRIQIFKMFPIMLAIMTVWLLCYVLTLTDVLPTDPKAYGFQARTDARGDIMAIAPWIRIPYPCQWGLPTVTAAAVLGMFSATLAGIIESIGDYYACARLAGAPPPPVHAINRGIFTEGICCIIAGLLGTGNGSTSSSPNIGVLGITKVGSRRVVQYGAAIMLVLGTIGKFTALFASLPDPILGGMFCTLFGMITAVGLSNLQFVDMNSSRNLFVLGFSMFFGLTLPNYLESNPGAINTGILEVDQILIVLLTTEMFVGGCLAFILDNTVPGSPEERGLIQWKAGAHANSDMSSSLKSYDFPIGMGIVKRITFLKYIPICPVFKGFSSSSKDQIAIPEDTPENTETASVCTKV
Chain of SVCT (Canis lupus familiaris, UniProt A8CX01) (A8CX01 1-605): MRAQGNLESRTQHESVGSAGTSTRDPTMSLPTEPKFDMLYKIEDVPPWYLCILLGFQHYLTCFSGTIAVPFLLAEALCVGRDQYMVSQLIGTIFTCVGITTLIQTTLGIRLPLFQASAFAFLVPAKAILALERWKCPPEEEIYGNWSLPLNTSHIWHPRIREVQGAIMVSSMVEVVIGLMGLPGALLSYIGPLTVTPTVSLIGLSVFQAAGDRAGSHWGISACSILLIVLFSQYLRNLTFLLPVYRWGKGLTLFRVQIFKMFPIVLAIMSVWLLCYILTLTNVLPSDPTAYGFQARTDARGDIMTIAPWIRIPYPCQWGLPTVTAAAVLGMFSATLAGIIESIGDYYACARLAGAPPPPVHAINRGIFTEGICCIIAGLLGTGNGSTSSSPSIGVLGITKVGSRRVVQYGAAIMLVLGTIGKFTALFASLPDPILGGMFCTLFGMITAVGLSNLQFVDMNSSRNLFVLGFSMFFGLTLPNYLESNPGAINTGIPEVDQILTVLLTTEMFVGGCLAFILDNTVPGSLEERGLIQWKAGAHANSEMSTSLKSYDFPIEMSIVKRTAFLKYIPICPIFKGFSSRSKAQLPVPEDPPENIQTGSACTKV

SMILES	solubility at 24 h (Aqueous solubility study) [µM]	P(A–B) (Caco-2 cell monolayers [1])	P(B–A) (Caco-2 cell monolayers [1])	P(A–B) [2]	P(B–A) [2]	PA–B [2] [×10⁻⁶ cm/s]	Inhibition of [14C]AA uptake (SVCT [3]) [%]	P(A–B) (Caco-2 cell monolayers [4]; [7])	P(B–A) (Caco-2 cell monolayers [4]; [7])	PA–B and PB–A in Caco-2 cells higher than in MDCK-MDR1 cells (Caco-2 cell monolayers [4]; Caco-2 vs MDCK-MDR1)	Papp A→B at 3 h, 23.5 μM [5] [×10⁻⁶ cm/s]	Papp B→A at 3 h, 23.5 μM [5] [×10⁻⁶ cm/s]	Uptake of [14C]AA diminished (inhibition) (SVCT [6]) [%]
CC(C)(C)NC(=O)[C@@H]1C[C@@H]2CCCC[C@@H]2CN1C[C@@H](O)[C@H](Cc1ccccc1)NC(=O)[C@H](CC(N)=O)NC(=O)c1ccc2ccccc2n1 [Saq, Saquinavir]	1750 ± 290 (≈ 1170 µg/mL)	0.93 cm/s, × 10^−6 and 0.93 ±0.10 cm/s, × 10^−6	20.39 ± 1.53 cm/s, × 10^−6	0.463 ± 0.025 cm/s, × 10^−6	19.9 ± 1.70 cm/s, × 10^−6	0.463	–	–	–	–	–	–	–
O=C1O[C@H]([C@@H](O)CO)C(O)=C1O [AA, L-Ascorbic acid]	–	–	–	–	–	–	66	17.6 ± 0.39 cm/s, × 10^−6	15.5 ± 3.11 cm/s, × 10^−6	about 2 fold	17.6 ± 0.39	15.5 ± 3.11	65
